Measurements from patent publication US10285986B2, “Compounds and anti-tumor NQO1 substrates” (The Board of Trustees of the University of Illinois, priority 2011, dated 2019).
≈ marks a conversion by molar mass, not a printed value. Where “and” joins values, the source holds several entries; their conditions need not be identical. Equal values may be shown once. Read-outs that look alike come from different tables or passages of the source.

Tests used:
MCF-7 cells = experiment: Cytotoxicity to MCF-7 cells with or without 25 μM dicoumarol (sulforhodamine B assay); type: cell-based, human; details: for IC50: Homo sapiens; for Fold Protection of MCF7 cells w/ 25 μM dicoumarol: Table 1; for Fold protection by DIC: Table 4.2
Procedure: The NQO1-dependent cytotoxicity of the first set of derivatives was determined in MCF-7 cells which express high levels of NQO1. Cells were exposed to DNQ for 2 hours in the presence or absence of 25 μM DIC. The media was then removed and cells were washed once with media then fresh media was added and the cells were incubated for 72 hours. Cell death was assessed using the sulforhodamine B assay previously described. […] Substitution off the nitrogen appeared well tolerated (4-14 and 4-15).
The DNQ derivatives synthesized were assayed for their toxicity to MCF-7 cells with or without DIC. The data from these experiments is organized in Table 4.2. […] This tolerance of sterically-demanding substituents corresponds with a flexible and promiscuous NQO1 active site. The poor activity of hydroxyl derivative 4-41 may be a result of either poor binding with the largely hydrophobic NQO1 active site or with an excessively strong substrate-enzyme interaction because of hydrogen bonding.

[1] = Solubility in 20% HPβCD solution (pH modulation protocol); type: physicochemical; details: 20% HPβCD in pH 7.4 PBS, pH 7.4, aqueous with cosolvent or surfactant or cyclodextrin, thermodynamic from solid; 20% HPβCD; Table 4.3
Procedure: The protocol for formulating DNQ compounds in HPβCD is as follows: the DNQ compound is slurried in a 20% solution of HPβCD in pH 7.4 PBS and the pH is then increased by the addition of 10 M NaOH to induce dissolution of the DNQ compound. The pH is returned to pH 7.5-8.0 by the careful addition of 1 M HCl. A 3.3 mM solution of the DNQ compound can be made by this method which is stable at least 24 hours. This represents a 30-fold increase in solubility of DNQ over PBS alone.
Although we were pleased to find active derivatives of DNQ that were up to 4-fold more soluble in water—sufficiently soluble for continuous IV infusion for human administration—this level of solubility was insufficient for animal studies by bolus injection. […] We used the same pH modulation protocol outlined for DNQ described in the specification above. The results are organized in Table 4.3 and FIG. 8. While all compounds were more soluble in HPβCD than in buffer alone, the fold increase in solubility varied widely.

[2] = Solubility in organic solvents; type: physicochemical; details: for solubility: organic solvent or mixture, thermodynamic from solid
Procedure: The solubility of DNQ derivatives in organic solvents was determined by measuring the amount of a given solvent required to dissolve a known amount of compound. Solvent was added to the compound in 50 μL aliquots and the slurry was sonicated. […] Solubility was assessed in DMSO, dichloromethane, and 33% methanol in dichloromethane (FIGS. 9, 10, and 11, respectively).

NQO1 = NQO1 (Homo sapiens, UniProt P15559); experiment: NQO1 enzymatic measurements in vitro; type: biochemical; details: 1 μM substrate
Chain of NQO1 (P15559 whole entry): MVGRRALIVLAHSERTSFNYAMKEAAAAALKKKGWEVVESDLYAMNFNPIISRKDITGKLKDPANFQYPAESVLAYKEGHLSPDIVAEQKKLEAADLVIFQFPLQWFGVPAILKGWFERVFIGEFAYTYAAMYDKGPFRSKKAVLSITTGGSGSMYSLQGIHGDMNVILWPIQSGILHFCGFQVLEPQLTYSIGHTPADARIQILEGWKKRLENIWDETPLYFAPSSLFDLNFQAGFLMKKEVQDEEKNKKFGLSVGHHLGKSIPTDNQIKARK
Procedure: As further evidence that the activity of these DNQ derivatives is dependent on their ability to be reduced by NQO1, full enzymatic measurements in vitro were performed. We found a strong correlation between catalytic efficiency of substrates in vitro and their cell culture toxicity. […] This provides strong evidence that the cytotoxicity of DNQ and its derivatives are dependent primarily upon the activity of NQO1 within the cell.

[3] = Solubility in organic solvents; type: physicochemical; details: organic solvent or mixture, thermodynamic from solid; THF; Table 1
[4] = Aqueous solubility in pH 7.4 PBS by LC-MS; type: physicochemical; details: phosphate buffered saline, pH 7.4, aqueous buffer, thermodynamic from solid, PBS pH 7.4; Table 4.3
Procedure: The aqueous solubility of DNQ at pH 7.4 in phosphate buffered saline (PBS) was measured by LC-MS. DNQ was sonicated for 30 minutes in PBS then undissolved solid was removed by filtration through a 0.45 μm syringe filter and the filtrate was analyzed by LC-MS (λ=275 nm, ESI-TOF in negative mode). The optimal sonication time was determined by sonicating DNQ for 1, 5, 10, and 30 minutes. While the concentration of DNQ in solution increased substantially between 1, 5, and 10 minutes, there was only a minor difference between 10 and 30 minutes. During the 30 minute sonication the water bath warmed to 45° C. (samples were cooled to room temperature before filtration). A calibration curve was generated from 1-100 μM by dissolving DNQ in methanol to a concentration of 500 μM and making dilutions of this stock in 80:20 water:methanol. The calibration curve (measure by UV absorbance) was linear over this range; 1 μM was approximately the limit of detection. […] The solution was very pale yellow.
The aqueous solubility of the compounds was determined by an LC-MS assay as described in the specification above. We applied the calibration curve generated for DNQ to the derivatives under the assumption that the UV profile of the derivatives of DNQ would be similar to that of DNQ.
After sonication and filtration most of the aqueous solutions were colorless. The solutions of DNQ, 4-31, and 4-37 were faintly yellow while 4-8, 4-14 and 4-41 were substantially more colored. The solution of 4-8, 4-14 and 4-41 were diluted 10-fold with PBS prior to LC-MS analysis to ensure that the concentrations fell within the range of the calibration curve.

[5] = Maximum tolerated dose in mice; details: mouse, in vivo, ip
Description: Because of the difficulty of repeated tail vein injections in mice, our group is using IP administration of compound.
All of these derivatives are currently being assessed for their maximum tolerated dose (MTD) in healthy mice. Compounds are formulated in HPβCD and delivered by IP injection to two mice once daily for five days.

[6] = MCF7, Table 1, read-out: MCF7 IC50
[7] = MCF7, Table 4.2, no DIC, ± s.e., read-out: IC50 vs. MCF-7 cells
[8] = MCF7, classification in figure legends of FIGS. 7-11, read-out: IC50 ("active" / generally "inactive" compounds)
[9] = MCF7, read-out: IC50 vs. MCF-7 cells +25 μM DIC, Table 4.2, +25 μM DIC, ± s.e.
[10] = 2:1 CH2Cl2:MeOH, Table 4.3, read-out: Solubility in 2:1 CH2Cl2:MeOH
[11] = CH2Cl2:MeOH 2:1, Table 1, read-out: CH2Cl2:MeOH 2:1 solubility
[12] = CH2Cl2, Table 1, read-out: CH2Cl2 solubility
[13] = DMSO, Table 1, read-out: DMSO solubility
[14] = CH2Cl2, Table 4.3, read-out: Solubility in CH2Cl2
[15] = DMSO, Table 4.3, read-out: Solubility in DMSO

SMILES | IC50 (MCF-7 cells; [6]) [nM] | IC50 (MCF-7 cells; [7]) [nM] | IC50 (MCF-7 cells; [8]) [nM] | IC50 (MCF-7 cells; [9]) [nM] | Fold Protection of MCF7 cells w/ 25 μM dicoumarol (MCF-7 cells) | Fold protection by DIC (MCF-7 cells) | solubility [1] [mM] | Solubility in CH2Cl2 ([2]; CH2Cl2, Table 4.3) [mM] | Solubility in DMSO ([2]; DMSO, Table 4.3) [mM] | solubility [2, 10] [mM] | solubility [2, 11] [mM] | solubility [2, 12] [mM] | solubility [2, 13] [mM] | NQO1 Initial Velocity @ 1 μM (NQO1) | solubility [3] [mM] | solubility at 30 min [4] [mM] | solubility [2, 14] [mM] | solubility [2, 15] [mM] | MTD at 5 days [5]
CCCCn1c2c(c(C)cc1=O)C(=O)c1c(C)cc(=O)[nH]c1C2=O [Compound 4-22] | 270 | 270 ± 40 | < 500 | 1500 ± 400 | 5.5 | 5.5 | 4 (≈ 1310 µg/mL) | 7.6 (≈ 2480 µg/mL) | 10 (≈ 3260 µg/mL) | 30 (≈ 9790 µg/mL) | 30 (≈ 9790 µg/mL) | 7.6 (≈ 2480 µg/mL) | 10 (≈ 3260 µg/mL) | 2100 ± 300 | 6.1 (≈ 1990 µg/mL) | 0.017 (≈ 5.55 µg/mL) |  |  | 
CCCCCCCn1c2c(c(C)cc1=O)C(=O)c1c(C)cc(=O)[nH]c1C2=O [Compound 4-25] |  | 420 ± 110 | < 500 | 4500 ± 400 |  | 11 | 3 (≈ 1110 µg/mL) |  |  |  |  |  |  |  |  | < 0.005 | 30 (≈ 11100 µg/mL) | 13 (≈ 4790 µg/mL) | 
Cc1cc(=O)[nH]c2c1C(=O)c1c(C)cc(=O)n(C(C)C)c1C2=O [Compound 4-30] |  | 240 ± 20 | < 500 | 2100 ± 800 |  | 8.6 | 3.7 (≈ 1160 µg/mL) |  |  | 79 (≈ 24700 µg/mL) |  |  |  |  |  | 0.041 (≈ 12.8 µg/mL) | 5.6 (≈ 1750 µg/mL) | 21 (≈ 6560 µg/mL) | 
Cc1cc(=O)[nH]c2c1C(=O)c1c(C)cc(=O)n(CC3CC3)c1C2=O [Compound 4-37] |  | 220 ± 10 | < 500 | 1400 ± 200 |  | 6.1 | 4.3 (≈ 1390 µg/mL) |  |  | 51 (≈ 16500 µg/mL) |  |  |  |  |  | 0.114 (≈ 37 µg/mL) | 13 (≈ 4220 µg/mL) | 25 (≈ 8110 µg/mL) | 
Cc1cc(=O)[nH]c2c1C(=O)c1c(C)cc(=O)n(CCC(C)C)c1C2=O [Compound 9-249] | 150 ± 30 | 180 ± 30 | < 500 | 1800 ± 500 | 12 | 10 | 4.7 (≈ 1600 µg/mL) | 9.7 (≈ 3300 µg/mL) | 8.6 (≈ 2930 µg/mL) | 58 (≈ 19700 µg/mL) | 58 (≈ 19700 µg/mL) | 9.7 (≈ 3300 µg/mL) | 8.6 (≈ 2930 µg/mL) | 2100 ± 90 | 8.8 (≈ 3000 µg/mL) | 0.006 (≈ 2.04 µg/mL) |  |  | 15 mg/kg and 44 µmol/kg
Cc1cc(=O)[nH]c2c1C(=O)c1c(C)cc(=O)n(CC(C)(C)C)c1C2=O [Compound 9-253] | 110 ± 40 | 230 ± 10 | < 500 | 2100 ± 700 | 9 | 8.9 | 9.4 (≈ 3200 µg/mL) | 23 (≈ 7830 µg/mL) | 16 (≈ 5450 µg/mL) | 100 (≈ 34000 µg/mL) | 100 (≈ 34000 µg/mL) | 23 (≈ 7830 µg/mL) | 16 (≈ 5450 µg/mL) | 1700 ± 100 | 20 (≈ 6810 µg/mL) | 0.024 (≈ 8.17 µg/mL) |  |  | ≥ 15 mg/kg and ≥ 44 µmol/kg
CCCCCn1c2c(c(C)cc1=O)C(=O)c1c(C)cc(=O)[nH]c1C2=O [Compound 9-255] | 190 ± 10 | 200 ± 10 | < 500 | 2000 ± 900 | 11 | 10 | 5 (≈ 1700 µg/mL) | 22 (≈ 7490 µg/mL) | 17 (≈ 5790 µg/mL) | 95 (≈ 32300 µg/mL) | 95 (≈ 32300 µg/mL) | 22 (≈ 7490 µg/mL) | 17 (≈ 5790 µg/mL) | 1700 ± 40 | 16 (≈ 5450 µg/mL) | < 0.005 |  |  | ≥ 15 mg/kg and ≥ 44 µmol/kg
Cc1cc(=O)[nH]c2c1C(=O)c1c(C)cc(=O)n(CCCO)c1C2=O [Compound 9-281] | 790 ± 100 | 680 ± 150 | > 500 | 3400 ± 600 | 4 | 5.0 |  | 0.3 (≈ 98.5 µg/mL) | 24 (≈ 7880 µg/mL) | 11 (≈ 3610 µg/mL) | 11 (≈ 3610 µg/mL) | 0.3 (≈ 98.5 µg/mL) | 24 (≈ 7880 µg/mL) | 1600 ± 200 | 0.67 (≈ 220 µg/mL) | 0.485 (≈ 159 µg/mL) |  |  | 
